Read-outs that look alike come from different tables or passages of the source. One block for each compound: values may come before it.
Assays:
[1] = target: human Nav1.8 (Homo sapiens (Human), UniProt Q9Y5Y9); experiment: E-VIPR optical membrane potential assay with electrical stimulation (NaV1.8 IC50 activity); assay type: cell-based
Source text: Sodium channels are voltage-dependent proteins that can be activated by inducing membrane voltage changes by applying electric fields. The electrical stimulation instrument and methods of use are described in Ion Channel Assay Methods PCT/US01/21652, herein incorporated by reference and are referred to as E-VIPR. The instrument comprises a microtiter plate handler, an optical system for exciting the coumarin dye while simultaneously recording the coumarin and oxonol emissions, a waveform generator, a current- or voltage-controlled amplifier, and a device for inserting electrodes in well. Under integrated computer control, this instrument passes user-programmed electrical stimulus protocols to cells within the wells of the microtiter plate.
24 hours before the assay on E-VIPR, HEK cells expressing human Nav1.8 were seeded in 384-well poly-lysine coated plates at 15,000-20,000 cells per well. […] Cells were grown in vented cap flasks, in 90% humidity and 5% CO2.
1) Pre-spotted compounds (in neat DMSO) into compound plates. […] Final compound plate volume was 80 μL (80-fold intermediate dilution from 1 μL DMSO spot; 160-fold final dilution after transfer to cell plate).
2) Prepared Hexyl Dye Solution.
3) Prepared cell plates. On the day of the assay, medium was aspirated and cells were washed three times with 100 μL of Bath1 Solution, maintaining 25 μL residual volume in each well.
4) Dispensed 25 μL per well of Hexyl Dye Solution into cell plates. Incubated for 20-35 minutes at room temp or ambient conditions.
5) Dispensed 80 μL per well of Bath1 into compound plates. Acid Yellow-17 (1 mM) was added and Potassium Chloride was altered from 4.5 to 20 mM depending on the NaV subtype and assay sensitivity.
6) Washed cell plates three times with 100 μL per well of Bath1, leaving 25 μL of residual volume. […] Incubated for 20-35 minutes at room temp/ambient condition.
7) Read Plate on E-VIPR. […] A pre-stimulus recording was performed for 0.5 seconds to obtain the un-stimulated intensities baseline. The stimulatory waveform was followed by 0.5 seconds of post-stimulation recording to examine the relaxation to the resting state.
Data was analyzed and reported as normalized ratios of emission intensities measured in the 460 nm and 580 nm channels. The response as a function of time was reported as the ratios obtained using the following formula: […]
The data was further reduced by calculating the initial (Ri) and final (Rf) ratios. These were the average ratio values during part or all of the pre-stimulation period, and during sample points during the stimulation period. The response to the stimulus R=Rf/Ri was then calculated and reported as a function of time.
Control responses were obtained by performing assays in the presence of a compound with the desired properties (positive control), such as tetracaine, and in the absence of pharmacological agents (negative control). Responses to the negative (N) and positive (P) controls were calculated as above.

[2] = Aqueous solubility study; assay type: physicochemical; conditions: for solubility at 24 h: thermodynamic from solid
Experimental: The aqueous solubility of compound 9 and 9a were determined according to the following procedure. Solubility data was determined at ambient conditions by equilibrating the compound with water on a shaking bed for 24 hours, followed by centrifugation and separation of the saturated solutions. The pH value of each media was measured before centrifugation, and the saturated solutions were assayed by HPLC.

[3] = Rat IV pharmacokinetic study; assay type: in vivo, Sprague Dawley rats; conditions: Sprague Dawley, male rat, single IV bolus 1 mg/kg of compound 9, DMI vehicle, analyte 9a in plasma; for AUC: male, rat, plasma, iv, 1 mg/kg
Experimental: (§1) Sample Analysis. […] Before extraction, plasma samples were diluted using blank plasma at an appropriate dilution factor, as necessary, depending on the dose level. […] After centrifugation, the supernatant extract (10 μL) was injected onto the LC/MS/MS system. The HPLC system included a Phenomenex Synergy Kinetix C8 column, 2.6 micron, 2.0 mm diameter×75 mm long eluted with a gradient mobile phase consisting of 0.1% formic acid in water or in acetonitrile.
(§2) The analytes were detected by MS/MS with Electrospray Ionization (ESI) in the mode of multiple reaction monitoring (MRM). […] The intra-day and inter-day assay accuracy was within 20% of the nominal values. The intra- and inter-day assay variability was ≦20%.
(§3) Pharmacokinetic Data Analysis.
(§4) Key pharmacokinetic parameters such as AUCall, AUCextra, Cmax, tmax, Cl, Vss and t1/2 were determined.
(§5) Statistical Data Analysis. Descriptive statistical data of pharmacokinetic parameters were calculated, including the mean, standard deviation (SD), using Watson LIMS version 7.4 SP3 or Microsoft Excel 2000.
Male Sprague Dawley rats (n=3) were administered a single nominal IV bolus dose of 1 mg/kg of compound 9 via a jugular vein cannula. […] Animals had free access to food and water before and after dosing. Blood samples (approximately 0.25 mL each) were collected via a carotid artery catheter prior to dosing and at 5 min, 10 min, 0.25, 0.5, 1, 2, 4, 8, 12, 24 hours post dose. Each blood sample was collected into a tube that was kept on wet ice and contained potassium EDTA as the anticoagulant. Plasma was separated and stored at approximately −70° C. until analysis.
Plasma concentration vs. time data were subjected to noncompartmental pharmacokinetic (PK) analysis.

[4] = Rat oral pharmacokinetic study; assay type: in vivo, Sprague Dawley rats; conditions: Sprague Dawley, mean ± SD
Experimental: as §1, §2, §3, §4, §5
Groups of male and female Sprague Dawley rats (n=3 per dose group) were administered single nominal oral doses of 10, 100, 400, 640, 1000 mg/kg (for males) and 30, 100, 300, 640, 1000 mg/kg (for females) of compound 9 by gavage. Compound 9 was formulated in either 30% PEG400 and 10% TPGS in water or 5% TPGS, 5% PVP-K30 in 50 mM Citrate, pH 5. Animals had free access to food and water before and after dosing. Blood samples (approximately 0.25 mL each) were collected via a carotid artery catheter prior to dosing and at 0.25, 0.5, 1, 2, 4, 8, 12, 24, 48 and 72 hours post dose. Each blood sample was collected into a tube that was kept on wet ice and contained potassium EDTA as the anticoagulant. Plasma was separated and stored at approximately −70° C. until analysis.

[5] = Chemical and physical stability of crystalline Form B (XRPD, HPLC impurity profile, appearance); assay type: physicochemical
Source text: Chemically and physically stable means no changes were observed on the X-ray powder diffraction and HPLC impurity profiles (e.g., less than 0.2% variance) and there were no observed changes in physical appearance of the samples.

[6] = female rat, single PO 30 mg/kg of compound 9, 5% TPGS/5% PVP-K30/50 mM Citrate pH 5, analyte 9a in plasma
[7] = female rat, single PO 100 mg/kg of compound 9, 5% TPGS/5% PVP-K30/50 mM Citrate pH 5, analyte 9a in plasma
[8] = female rat, single PO 300 mg/kg of compound 9, 5% TPGS/5% PVP-K30/50 mM Citrate pH 5, analyte 9a in plasma
[9] = female rat, single PO 640 mg/kg of compound 9, 5% TPGS/5% PVP-K30/50 mM Citrate pH 5, analyte 9a in plasma
[10] = female rat, single PO 1000 mg/kg of compound 9, 5% TPGS/5% PVP-K30/50 mM Citrate pH 5, analyte 9a in plasma
[11] = male rat, single PO 10 mg/kg of compound 9, 5% TPGS/5% PVP-K30/50 mM Citrate pH 5, analyte 9a in plasma
[12] = male rat, single PO 100 mg/kg of compound 9, 5% TPGS/5% PVP-K30/50 mM Citrate pH 5, analyte 9a in plasma
[13] = male rat, single PO 400 mg/kg of compound 9, 5% TPGS/5% PVP-K30/50 mM Citrate pH 5, analyte 9a in plasma
[14] = male rat, single PO 640 mg/kg of compound 9, 5% TPGS/5% PVP-K30/50 mM Citrate pH 5, analyte 9a in plasma
[15] = male rat, single PO 1000 mg/kg of compound 9, 5% TPGS/5% PVP-K30/50 mM Citrate pH 5, analyte 9a in plasma

human Nav1.8, sequence (Q9Y5Y9 whole entry): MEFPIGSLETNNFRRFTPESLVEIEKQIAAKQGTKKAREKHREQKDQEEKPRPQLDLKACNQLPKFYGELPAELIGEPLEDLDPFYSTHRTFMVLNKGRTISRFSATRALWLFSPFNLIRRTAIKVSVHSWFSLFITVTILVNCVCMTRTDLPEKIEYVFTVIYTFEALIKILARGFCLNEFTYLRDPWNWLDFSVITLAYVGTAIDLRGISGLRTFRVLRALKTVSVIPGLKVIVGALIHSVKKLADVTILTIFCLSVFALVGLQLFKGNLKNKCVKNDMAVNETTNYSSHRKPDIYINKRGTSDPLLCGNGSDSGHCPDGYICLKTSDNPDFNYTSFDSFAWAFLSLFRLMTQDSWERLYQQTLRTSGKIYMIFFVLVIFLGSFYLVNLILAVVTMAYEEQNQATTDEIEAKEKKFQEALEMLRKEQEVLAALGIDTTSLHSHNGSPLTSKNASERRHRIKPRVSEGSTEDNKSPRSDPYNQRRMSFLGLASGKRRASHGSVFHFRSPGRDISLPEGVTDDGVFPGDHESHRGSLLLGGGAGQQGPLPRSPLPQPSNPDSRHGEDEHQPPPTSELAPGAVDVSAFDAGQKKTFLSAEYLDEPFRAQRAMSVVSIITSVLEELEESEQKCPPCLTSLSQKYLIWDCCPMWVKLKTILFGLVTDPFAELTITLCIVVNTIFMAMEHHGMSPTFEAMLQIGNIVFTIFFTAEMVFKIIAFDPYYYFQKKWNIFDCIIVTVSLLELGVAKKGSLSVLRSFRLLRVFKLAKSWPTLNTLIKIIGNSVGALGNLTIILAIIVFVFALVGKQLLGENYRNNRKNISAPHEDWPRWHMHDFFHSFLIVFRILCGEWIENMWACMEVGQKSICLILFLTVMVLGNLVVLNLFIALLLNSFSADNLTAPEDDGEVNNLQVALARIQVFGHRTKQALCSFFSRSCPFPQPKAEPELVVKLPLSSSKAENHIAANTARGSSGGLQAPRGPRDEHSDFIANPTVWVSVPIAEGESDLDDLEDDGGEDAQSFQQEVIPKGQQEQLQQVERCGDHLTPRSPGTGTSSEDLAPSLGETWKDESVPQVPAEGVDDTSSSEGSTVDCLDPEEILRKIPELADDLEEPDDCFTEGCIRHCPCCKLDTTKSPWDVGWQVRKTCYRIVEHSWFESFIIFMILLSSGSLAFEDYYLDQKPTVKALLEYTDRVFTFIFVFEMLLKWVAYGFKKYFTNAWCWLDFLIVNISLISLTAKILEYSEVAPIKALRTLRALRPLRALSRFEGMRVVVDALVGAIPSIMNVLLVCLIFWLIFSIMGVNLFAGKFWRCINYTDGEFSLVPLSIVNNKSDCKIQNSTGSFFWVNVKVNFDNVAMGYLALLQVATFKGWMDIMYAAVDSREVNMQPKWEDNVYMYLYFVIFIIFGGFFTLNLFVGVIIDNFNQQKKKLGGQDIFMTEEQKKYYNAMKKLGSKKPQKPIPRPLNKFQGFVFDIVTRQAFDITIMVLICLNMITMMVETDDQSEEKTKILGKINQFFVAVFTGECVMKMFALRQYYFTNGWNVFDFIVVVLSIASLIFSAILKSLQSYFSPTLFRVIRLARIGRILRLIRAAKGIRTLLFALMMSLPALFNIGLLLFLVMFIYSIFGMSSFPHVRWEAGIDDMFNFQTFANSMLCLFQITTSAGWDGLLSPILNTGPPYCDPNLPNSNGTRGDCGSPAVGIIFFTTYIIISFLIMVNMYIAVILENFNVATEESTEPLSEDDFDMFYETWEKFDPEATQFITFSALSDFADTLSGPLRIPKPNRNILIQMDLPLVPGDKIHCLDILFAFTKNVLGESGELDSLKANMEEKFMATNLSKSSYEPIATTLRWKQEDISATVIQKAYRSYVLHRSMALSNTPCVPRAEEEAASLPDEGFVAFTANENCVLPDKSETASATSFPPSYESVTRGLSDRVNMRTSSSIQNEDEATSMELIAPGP

IC50 [1]: 4 nM
Structure (SMILES): COc1cc(F)ccc1Oc1cc(Cl)c(Cl)cc1C(=O)Nc1ccn(COP(=O)(O)O)c(=O)c1 [Compound 1, (4-(4,5-dichloro-2-(4-fluoro-2-methoxyphenoxy)benzamido)-2-oxopyridin-1(2H)-yl)methyl dihydrogen phosphate]

IC50 [1]: 28 nM
Structure (SMILES): COc1cc(F)ccc1Oc1cc(C(F)(F)C(F)(F)F)ccc1C(=O)Nc1ccn(COP(=O)(O)O)c(=O)c1 [Compound 2, (4-(2-(4-fluoro-2-methoxyphenoxy)-4-(perfluoroethyl)benzamido)-2-oxopyridin-1(2H)-yl)methyl dihydrogen phosphate]

IC50 [1]: 86 nM
Structure (SMILES): Cc1cc(F)ccc1Oc1ccc(C(F)(F)F)cc1C(=O)Nc1ccn(COP(=O)(O)O)c(=O)c1 [Compound 10, (4-(2-(4-fluoro-2-methylphenoxy)-5-(trifluoromethyl)benzamido)-2-oxopyridin-1(2H)-yl)methyl dihydrogen phosphate]

IC50 [1]: 329 nM
Structure (SMILES): Cc1cc(F)ccc1Oc1cc(Cl)ccc1C(=O)Nc1ccn(COP(=O)(O)O)c(=O)c1 [Compound 13, (4-(4-chloro-2-(4-fluoro-2-methylphenoxy)benzamido)-2-oxopyridin-1(2H)-yl)methyl dihydrogen phosphate]

More lines, now with the values behind:

Structure (SMILES): Cc1cc(F)ccc1Oc1cc(C(F)(F)F)ccc1C(=O)Nc1cc[nH]c(=O)c1 [Compound 9a, 2-(4-fluoro-2-methylphenoxy)-N-(2-oxo-1,2-dihydropyridin-4-yl)-4-(trifluoromethyl)benzamide]
solubility at 24 h ([2]; aqueous medium, simulated gastric fluid, pH 1.2, crystalline, ambient conditions, 24 hours, read-out: Solubility): < 1 µg/mL
Solubility ([2]; pH 6.0, crystalline, ambient conditions, 24 hours): <1 µg/mL
solubility at 24 h ([2]; water, pH 6.0, read-out: aqueous solubility in water): < 1 µg/mL
C0 [3]: 259 ng/mL
clearance [3]: 18.7 mL/min/kg
Vd ([3]; read-out: Vss): 3.77 L/kg
half-life ([3]; read-out: t½ (converted)): 2.43 h
AUC ([3]; read-out: AUCall): 592 ng·h/mL
AUC ([3]; read-out: AUCextra): 611 ng·h/mL
AUC [4, 6]: 99200 ± 6880 ng·h/mL
Cmax [4, 6]: 3330 ± 430 ng/mL
Tmax [4, 6]: 6.67 ± 2.31 h
half-life [4, 6]: 10.8 ± 1.6 h
AUC [4, 7]: 187000 ± 17500 ng·h/mL
Cmax [4, 7]: 5820 ± 580 ng/mL
Tmax [4, 7]: 12 h
half-life [4, 7]: 9.15 ± 0.44 h
AUC [4, 8]: 282000 ± 74200 ng·h/mL
Cmax [4, 8]: 7900 ± 1300 ng/mL
Tmax [4, 8]: 10.7 ± 2.31 h
half-life [4, 8]: 13.1 ± 2.65 h
AUC [4, 9]: 324000 ± 32800 ng·h/mL
Cmax [4, 9]: 10000 ± 1450 ng/mL
Tmax [4, 9]: 9.33 ± 2.31 h
half-life [4, 9]: 7.51 ± 1.86 h
AUC [4, 10]: 345000 ± 69600 ng·h/mL
Cmax [4, 10]: 10600 ± 3580 ng/mL
Tmax [4, 10]: 13.3 ± 9.24 h
half-life [4, 10]: 7.9 ± 3.37 h
AUC [4, 11]: 3600 ± 240 ng·h/mL
Cmax [4, 11]: 290 ± 50 ng/mL
Tmax [4, 11]: 5.33 ± 2.31 h
half-life [4, 11]: 3.8 ± 0.73 h
AUC [4, 12]: 24800 ± 4600 ng·h/mL
Cmax [4, 12]: 1670 ± 190 ng/mL
Tmax [4, 12]: 8 h
half-life [4, 12]: 5.36 ± 2.3 h
AUC [4, 13]: 68600 ± 25700 ng·h/mL
Cmax [4, 13]: 3740 ± 1250 ng/mL
Tmax [4, 13]: 5.67 ± 4.04 h
half-life [4, 13]: 5.2 ± 1.96 h
AUC [4, 14]: 74900 ± 24100 ng·h/mL
Cmax [4, 14]: 4760 ± 980 ng/mL
Tmax [4, 14]: 6 ± 3.46 h
half-life [4, 14]: 6.91 ± 1.84 h
AUC [4, 15]: 88500 ± 41000 ng·h/mL
Cmax [4, 15]: 4540 ± 910 ng/mL
Tmax [4, 15]: 6.67 ± 2.31 h
half-life [4, 15]: 7.95 ± 2.24 h

Structure (SMILES): O=C(Nc1ccn(COP(=O)(O)O)c(=O)c1)c1cc(C(F)(F)F)ccc1Oc1ccc(F)cc1 [Compound 18, (4-(2-(4-fluorophenoxy)-5-(trifluoromethyl)benzamido)-2-oxopyridin-1(2H)-yl)methyl dihydrogen phosphate]
IC50 [1]: 457 nM

Structure (SMILES): Cc1cc(F)ccc1Oc1cc(C(F)(F)F)ccc1C(=O)Nc1ccn(COP(=O)(O)O)c(=O)c1 [crystalline Form B, (4-(2-(4-fluoro-2-methylphenoxy)-4-(trifluoromethyl)benzamido)-2-oxopyridin-1(2H)-yl)methyl dihydrogen phosphate]
chemical and physical stability ([5]; 5° C./dry, 40° C./dry, 25° C. with relative humidity of up to 60%, 40° C. with relative humidity of up to 75%): chemically and physically stable for at least one month
chemical and physical stability ([5]; open dish at 40° C., 40° C. with RH up to 75%, 25° C. with RH up to 60%, closed dish at 5° C. with a desiccator): chemically and physically stable for at least three months

— patent US9163042B2, “Prodrugs of pyridone amides useful as modulators of sodium channels” (VERTEX PHARMACEUTICALS INCORPORATED, priority 2013, dated 2015)
